Measured values published in patent publication US20070276011A1, “Plasminogen Activator Inhibitor-1 Inhibitor” (priority 2003, published 2007).
Blank lines part the entries; values can stand above or below the compound they belong to.

Target: recombinant human PAI-1 (Homo sapiens, UniProt P05121)
Test: PAI-1 inhibitory activity, Test Method A (tPA fluorogenic substrate, Tris buffer pH8.0, 37 C)
Type: biochemical
Settings: Test Method A
Experimental: To this solution, 50 μL solution of 400 μM fluogenic substrate for tPA (Pyr-Gly-Arg-MCA, Peptide Institute, Inc.) adjusted with the same buffer was added, and reacted for 30 minutes at 37° C. The reaction was stopped by adding 50 μL of 2% acetic acid. Fluorescence was measured at the excitation wavelength=360 nm, emission wavelength=460 or 465 nm using a microplate reader (SPECTRAFLUOR or GENios) by TECAN. The fluorescence intensities in the presence of the PAI-1 as the control (DMSO) or in the absence of the PAI-1 (tPA alone) were taken as 100% and 0% of PAI-1 activities, respectively, and inhibitory ratios of PAI-1 activities in the presence of the test compound were obtained.
<Composition of the Tris Buffer (pH8.0)>

recombinant human PAI-1, sequence (P05121 24-402): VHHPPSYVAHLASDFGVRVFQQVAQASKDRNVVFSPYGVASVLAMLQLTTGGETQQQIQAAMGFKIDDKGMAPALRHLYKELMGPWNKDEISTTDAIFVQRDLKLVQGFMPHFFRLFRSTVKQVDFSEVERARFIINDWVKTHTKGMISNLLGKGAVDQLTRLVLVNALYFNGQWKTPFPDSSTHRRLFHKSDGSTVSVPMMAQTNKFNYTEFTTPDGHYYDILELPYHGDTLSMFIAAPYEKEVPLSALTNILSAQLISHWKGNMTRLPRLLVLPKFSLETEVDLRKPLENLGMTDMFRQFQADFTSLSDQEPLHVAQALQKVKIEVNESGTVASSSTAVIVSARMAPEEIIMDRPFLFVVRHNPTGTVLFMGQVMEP

SMILES: COc1ccc(COC(=O)c2cc(C=C3SC(=O)N(Cc4ccc(C(F)(F)F)cc4)C3=O)ccc2O)cc1 [compound 387, 5-[4-hydroxy-3-(4-methoxybenzyloxycarbonyl)benzylidene]-3-[4-(trifluoromethyl)benzyl]thiazolidine-2,4-dione]
- Inhibitory Ratio at 25 μM (%) (25 μM test compound): 74%

SMILES: O=C(Nc1cc(C=C2SC(=O)N(Cc3ccc(Cl)c(Cl)c3)C2=O)ccc1O)c1ccc(O)c(O)c1 [compound 380]
- Inhibitory Ratio at 25 μM (%) (25 μM test compound): >99%

SMILES: CCOC(=O)CCC1=NN(c2ccccc2)C(=O)C1=Cc1ccc2c(c1)OCO2 [compound 512, 4-(3,4-Methylenedioxybenzylidene)-1-phenyl-3-[2-(ethoxycarbonyl)ethyl]-2-pyrazolin-5-one]
- Inhibitory Ratio at 25 μM (%) (25 μM test compound): 52%

SMILES: O=C1SC(=Cc2ccc(O)c(O)c2)C(=O)N1Cc1ccc(C=Cc2cc(C(F)(F)F)cc(C(F)(F)F)c2)cc1 [compound 58, 5-(3,4-Dihydroxybenzylidene)-3-{4-[3,5-bis(trifluoromethyl)styryl]-benzyl}thiazolidine-2,4-dione]
- Inhibitory Ratio at 25 μM (%) (test compound 25 μM): 95%

SMILES: O=C(Nc1cc(C(F)(F)F)ccc1[N+](=O)[O-])c1cc(C=C2SC(=O)N(Cc3ccc(Cl)c(Cl)c3)C2=O)ccc1O [compound 466]
- Inhibitory Ratio at 25 μM (%) (25 μM test compound): >99%

SMILES: O=C(O)c1cccc(N2N=C(c3ccccc3)C(=Cc3ccc(Br)o3)C2=O)c1 [compound 215]
- Inhibitory Ratio at 25 μM (%) (test compound 25 μM): 77%

SMILES: O=C1SC(=Cc2cc([O-])c([O-])c(O)c2)C(=O)N1Cc1ccc(Cl)c(Cl)c1.[Na+].[Na+] [compound 338]
- Inhibitory Ratio at 25 μM (%) (25 μM test compound): 85%

SMILES: COc1ccc(C)c(NC(=O)c2cc(C=C3SC(=O)N(Cc4ccc(Cl)c(Cl)c4)C3=O)ccc2O)c1 [compound 450, 5-[4-hydroxy-3-(2-methyl-5-methoxyphenylcarbamoyl)-benzylidene]-3-(3,4-dichlorobenzyl)thiazolidine-2,4-dione]
- Inhibitory Ratio at 25 μM (%) (25 μM test compound): 87%

SMILES: O=C1SC(=Cc2ccc([N+](=O)[O-])c(O)c2)C(=O)N1Cc1ccc(Cl)c(Cl)c1 [compound 87, 5-(3-hydroxy-4-nitrobenzylidene)-3-(3,4-dichlorobenzyl)-thiazolidine-2,4-dione]
- Inhibitory Ratio at 25 μM (%) (test compound 25 μM): >99%

SMILES: COc1ccc(C(F)(F)F)cc1NC(=O)c1cc(C=C2SC(=O)N(Cc3ccc(Cl)c(Cl)c3)C2=O)ccc1O [compound 468]
- Inhibitory Ratio at 25 μM (%) (25 μM test compound): >99%

SMILES: O=C(Nc1ccc2c(c1)OCO2)c1cc(C=C2SC(=O)N(Cc3ccc(Cl)c(Cl)c3)C2=O)cc(O)c1O [compound 474]
- Inhibitory Ratio at 25 μM (%) (25 μM test compound): 82%

SMILES: CC(C)C1=NN(c2ccc([N+](=O)[O-])cc2)C(=O)C1=Cc1cc(C=Cc2ccccc2)ccc1O [compound 531, 4-(21-Hydroxy-5-styrylbenzylidene)-1-(4-nitrophenyl)-3-isopropyl-2-pyrazolin-5-one]
- Inhibitory Ratio at 25 μM (%) (25 μM test compound): 50%

SMILES: COc1ccc(Oc2ccc(C(F)(F)F)cc2NC(=O)c2cc(C=C3SC(=O)N(Cc4cccc(Oc5ccccc5)c4)C3=O)ccc2O)cc1 [compound 421, 5-(4-hydroxy-3-{[2-(4-methoxyphenoxy)-5-(trifluoromethyl)-phenyl]carbamoyl}benzylidene)-3-(3-phenoxybenzyl)thiazolidine-2,4-dione]
- Inhibitory Ratio at 25 μM (%) (25 μM test compound): >99%

SMILES: COc1cc(C=C2SC(=O)N(Cc3ccc(Cl)c(Cl)c3)C2=O)cc(C(=O)Nc2cc(C(F)(F)F)ccc2Cl)c1O [compound 439]
- Inhibitory Ratio at 25 μM (%) (25 μM test compound): 89%

SMILES: O=C1SC(=Cc2ccc(Oc3ccccc3)cc2)C(=O)N1Cc1cc(O)c(O)c(O)c1 [compound 308, 5-(4-Phenoxybenzylidene)-3-(3,4,5-trihydroxybenzyl)thiazolidine-2,4-dione]
- Inhibitory Ratio at 25 μM (%) (25 μM test compound): 98%

SMILES: O=C(OCc1ccccc1)c1cc(C=C2SC(=O)N(Cc3ccc(Cl)c(Cl)c3)C2=O)cc(O)c1O [compound 463, 5-[3,4-Dihydroxy-5-(benzyloxycarbonyl)benzylidene]-3-(3,4-dichlorobenzyl)thiazolidine-2,4-dione]
- Inhibitory Ratio at 25 μM (%) (25 μM test compound): >99%

SMILES: CC(=O)Nc1ccc(C=C2SC(=O)N(Cc3ccc(Cl)c(Cl)c3)C2=O)cc1 [compound 79, 5-[4-(acetamido)benzylidene]-3-(3,4-dichlorobenzyl)-thiazolidine-2,4-dione]
- Inhibitory Ratio at 25 μM (%) (test compound 25 μM): 65%

SMILES: O=C(Nc1cc(O)cc(C(F)(F)F)c1)c1cc(C=C2SC(=O)N(Cc3ccc(Cl)c(Cl)c3)C2=O)ccc1O [compound 459]
- Inhibitory Ratio at 25 μM (%) (25 μM test compound): >99%

SMILES: O=C1SC(=Cc2ccc3c(c2)OCO3)C(=O)N1Cc1ccc(Cl)cc1Cl [compound 336]
- Inhibitory Ratio at 25 μM (%) (25 μM test compound): 61%

SMILES: O=C(Nc1ccc(O)c(O)c1)c1cccc(C=C2SC(=O)N(Cc3ccc(Cl)c(Cl)c3)C2=O)c1 [compound 388, 5-[3-(3,4-Dihydroxyphenylcarbamoyl)benzylidene]-3-(3,4-dichlorobenzyl)thiazolidine-2,4-dione]
- Inhibitory Ratio at 25 μM (%) (25 μM test compound): 65%

SMILES: O=C(O)c1cccc(N2N=C(c3ccccc3)C(=Cc3ccc(-c4cc(Cl)cc(Cl)c4)o3)C2=O)c1 [compound 216]
- Inhibitory Ratio at 25 μM (%) (test compound 25 μM): 94%

SMILES: CCOC1=NN(c2ccc([N+](=O)[O-])cc2)C(=O)C1=Cc1cc(C=Cc2ccccc2)ccc1OC [compound 537]
- Inhibitory Ratio at 25 μM (%) (25 μM test compound): 66%

SMILES: O=C(Nc1ccc2c(c1)OCO2)c1cc(C=C2SC(=O)N(Cc3ccc(Cl)c(Cl)c3)C2=O)ccc1O [compound 428]
- Inhibitory Ratio at 25 μM (%) (25 μM test compound): 86%

SMILES: Cc1ccc(O)cc1NC(=O)c1cc(C=C2SC(=O)N(Cc3ccc(Cl)c(Cl)c3)C2=O)ccc1O [compound 456]
- Inhibitory Ratio at 25 μM (%) (25 μM test compound): 83%

SMILES: CCOC1=NN(c2ccc([N+](=O)[O-])cc2)C(=O)C1=Cc1cc(Br)ccc1O [compound 513]
- Inhibitory Ratio at 25 μM (%) (25 μM test compound): 72%

SMILES: N=C(N)NCCC[C@H](N)C(=O)O.N=C(N)NCCC[C@H](N)C(=O)O.O=C1SC(=Cc2ccc(O)c(O)c2)C(=O)N1Cc1ccc(Cl)cc1Cl [compound 335, di(L-(+)-arginine) salt of 5-(3,4-dihydroxybenzylidene)-3-(2,4-dichlorobenzyl)thiazolidine-2,4-dione]
- Inhibitory Ratio at 25 μM (%) (25 μM test compound): >99%

SMILES: O=C(Nc1cc(C(F)(F)F)cc(C(F)(F)F)c1)c1cc(C=C2SC(=O)N(Cc3ccc(Cl)c(Cl)c3)C2=O)ccc1O [compound 404]
- Inhibitory Ratio at 25 μM (%) (25 μM test compound): >99%

SMILES: O=C(CCc1ccccc1)Nc1ccc(CN2C(=O)SC(=Cc3cccc(O)c3O)C2=O)cc1 [compound 314, 5-(2,3-Dihydroxybenzylidene)-3-[4-(3-phenylpropionylamino)benzyl]-thiazolidine-2,4-dione]
- Inhibitory Ratio at 25 μM (%) (25 μM test compound): >99%

SMILES: O=C1SC(=Cc2ccc(O)cc2O)C(=O)N1Cc1ccc(Cl)c(Cl)c1 [compound 45]
- Inhibitory Ratio at 25 μM (%) (test compound 25 μM): >99%

The next lines start with the values.

- Inhibitory Ratio at 25 μM (%) (25 μM test compound): >99%
SMILES: COCC1=NN(c2cc(Cl)cc(Cl)c2)C(=O)C1=Cc1cc(Br)ccc1O [compound 521, 4-(2-Hydroxy-5-bromobenzylidene)-1-(3,5-dichlorophenyl)-3-methoxymethyl-2-pyrazolin-5-one]

- Inhibitory Ratio at 25 μM (%) (test compound 25 μM): 27%
SMILES: C=CCOc1ccc(C=C2C(=O)N(c3ccc(Cl)c(C(=O)O)c3)N=C2C)cc1OC [compound 169]

- Inhibitory Ratio at 25 μM (%) (25 μM test compound): >99%
SMILES: COC(=O)c1cc(C=C2SC(=O)N(Cc3ccc(Cl)cc3Cl)C2=O)cc(O)c1O [compound 341, 5-[3,4-Dihydroxy-5-(methoxycarbonyl)benzylidene]-3-(2,4-dichlorobenzyl)thiazolidine-2,4-dione]

- Inhibitory Ratio at 25 μM (%) (25 μM test compound): >99%
SMILES: COC(=O)c1cc(C=C2SC(=O)N(Cc3ccc(Cl)c(Cl)c3)C2=O)cc(O)c1O [compound 344]

- Inhibitory Ratio at 25 μM (%) (25 μM test compound): 59%
SMILES: COCC1=NN(c2cc(Cl)cc(Cl)c2)C(=O)C1=Cc1ccc(Oc2ccccc2)cc1 [compound 527]

- Inhibitory Ratio at 25 μM (%) (test compound 25 μM): >99%
SMILES: COC(=O)c1cccc(N2N=C(C(F)(F)F)C(=Cc3ccc(-c4cc(Cl)cc(Cl)c4)o3)C2=O)c1 [compound 166, 4-{[5-(3,5-Dichlorophenyl)furan-2-yl]methylene}-1-[3-(methoxycarbonyl)phenyl]-3-trifluoromethyl-2-pyrazolin-5-one]

- Inhibitory Ratio at 25 μM (%) (test compound 25 μM): 44%
SMILES: CC1=NN(c2ccc(Cl)c(C(=O)O)c2)C(=O)C1=Cc1ccc(-c2cccc(F)c2)o1 [compound 192]

- Inhibitory Ratio at 25 μM (%) (test compound 25 μM): 33%
SMILES: COc1cc(C=C2C(=O)N(c3cccc(Cl)c3)N=C2C)cc(O)c1O [compound 124]

- Inhibitory Ratio at 25 μM (%) (test compound 25 μM): 49%
SMILES: COC(=O)c1cccc(N2N=C(C(C)C)C(=Cc3ccc(Cl)c(Cl)c3)C2=O)c1 [compound 210]

- Inhibitory Ratio at 25 μM (%) (25 μM test compound): >99%
SMILES: CC(C)C1=NN(c2cc(Cl)cc(Cl)c2)C(=O)C1=Cc1cc(O)c(O)c(Br)c1 [compound 540]

- Inhibitory Ratio at 25 μM (%) (test compound 25 μM): 21%
SMILES: COC(=O)c1cccc(-c2ccc(C=C3C(=O)N(c4cccc(C(=O)O)c4)N=C3C)o2)c1 [compound 189]

- Inhibitory Ratio at 25 μM (%) (test compound 25 μM): 54%
SMILES: CC1=NN(c2ccccc2)C(=O)C1=Cc1ccc(-c2cc(C(=O)O)ccc2Cl)o1 [compound 163]

- Inhibitory Ratio at 25 μM (%) (test compound 25 μM): 72%
SMILES: CC1=NN(c2cccc(Cl)c2)C(=O)C1=Cc1cc(O)c(O)cc1O [compound 158]

- Inhibitory Ratio at 25 μM (%) (test compound 25 μM): 30%
SMILES: CC1=NN(c2ccc(S(N)(=O)=O)cc2)C(=O)C1=Cc1ccc(-c2cccc(Cl)c2)o1 [compound 186]

- Inhibitory Ratio at 25 μM (%) (test compound 25 μM): 35%
SMILES: CC1=NN(c2cccc(C(F)(F)F)c2)C(=O)C1=Cc1cccc(O)c1 [compound 122]

- Inhibitory Ratio at 25 μM (%) (25 μM test compound): 50%
SMILES: COc1cc(OC)c(OC)cc1C=C1C(=O)N(c2cc(Cl)cc(Cl)c2)N=C1C(C)C [compound 506]

- Inhibitory Ratio at 25 μM (%) (test compound 25 μM): 94%
SMILES: CC(C)C1=NN(c2cc(Cl)cc(Cl)c2)C(=O)C1=Cc1ccc(Cl)c([N+](=O)[O-])c1 [compound 206]

- Inhibitory Ratio at 25 μM (%) (25 μM test compound): >99%
SMILES: COc1ccc(C)cc1NC(=O)c1cc(C=C2SC(=O)N(Cc3ccc(Cl)c(Cl)c3)C2=O)ccc1O [compound 452, 5-[4-hydroxy-3-(2-methoxy-5-methylphenylcarbamoyl)-benzylidene]-3-(3,4-dichlorobenzyl)thiazolidine-2,4-dione]
